From ChEMBL document CHEMBL1201862, “PubChem BioAssay data set” (2004)
Structures can show the parent of a compound that is named as a salt.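 These data come from cells grown in 96-well plates and exposed to compound for 48 hours at five concentrations. GI50: concentration for 50% inhibition of growth.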 Calls of active or inactive are those of the source. Cut-off read from the data, not from the text of the source: active = GI50 up to about 1.1 µM and inactive = higher.

Legend:
Experiment in all cases: NCI-60 cell line screen, 48 h
[1] = test system: A498
[2] = test system: ACHN
[3] = test system: HCT-116
[4] = test system: HOP-62
[5] = test system: M14
[6] = test system: MCF7
[7] = test system: MDA-N
[8] = test system: MOLT-4
[9] = test system: NCI-H460
[10] = test system: NCI-H522
[11] = test system: OVCAR-5
[12] = test system: PC-3
[13] = test system: RXF 393
[14] = test system: SF-295
[15] = test system: SF-539
[16] = test system: SK-OV-3
[17] = test system: SNB-75
[18] = test system: SR
[19] = test system: SW-620
[20] = test system: HL-60

Compound | GI50 [1] | GI50 [2] | GI50 [3] | GI50 [4] | GI50 [5] | GI50 [6] | GI50 [7] | GI50 [8] | GI50 [9] | GI50 [10] | GI50 [11] | GI50 [12] | GI50 [13] | GI50 [14] | GI50 [15] | GI50 [16] | GI50 [17] | GI50 [18] | GI50 [19] | GI50 [20]
CCOC(=O)c1c(SCCN2CCCC2)n(-c2ccccc2)c(=S)n(-c2ccccc2)c1=O | 10.4 µM (inactive) | 1.72 µM (inactive) | 4.27 µM (inactive) | 18.5 µM (inactive) | 1.75 µM (inactive) | 1.19 µM (inactive) | 2.36 µM (inactive) | 1.65 µM (inactive) | 5.81 µM (inactive) | 1.77 µM (inactive) | 26.9 µM (inactive) | 1.66 µM (inactive) | 1.74 µM (inactive) | 28.3 µM (inactive) | 2.38 µM (inactive) | 18.1 µM (inactive) | 6.93 µM (inactive) | 0.457 µM (active) | 2.6 µM (inactive) | 
c1ccc2c(c1)Cn1c-2nc2ccccc21 | > 100 µM (inactive) | 96.6 µM (inactive) | > 100 µM (inactive) | > 100 µM (inactive) | > 100 µM (inactive) | > 100 µM (inactive) | > 100 µM (inactive) | 31.1 µM (inactive) | 97.3 µM (inactive) | 43.1 µM (inactive) | > 100 µM (inactive) | > 100 µM (inactive) | 82 µM (inactive) | > 100 µM (inactive) | > 100 µM (inactive) | > 100 µM (inactive) | < 0.01 µM (active) |  | > 100 µM (inactive) | > 100 µM (inactive)
Cc1ccc(Cl)c2c(=O)c3ccc(N)cc3sc12 | 17 µM (inactive) | 21.4 µM (inactive) | 16.9 µM (inactive) | 19.7 µM (inactive) | 28.4 µM (inactive) | 15.7 µM (inactive) | 30.1 µM (inactive) | 11.7 µM (inactive) | 31.9 µM (inactive) |  | 28 µM (inactive) | 25 µM (inactive) | 22.1 µM (inactive) | 13.5 µM (inactive) | 16 µM (inactive) |  | 13.6 µM (inactive) |  |  | 2.99 µM (inactive)
NCCc1cc(O)c(O)cc1O [OXIDOPAMINE HYDROCHLORIDE] | > 100 µM (inactive) | 20.9 µM (inactive) | 18.7 µM (inactive) | 22.9 µM (inactive) | 20 µM (inactive) | 25.3 µM (inactive) | 22.6 µM (inactive) | 21.8 µM (inactive) | 29.2 µM (inactive) |  | 37.1 µM (inactive) | 33.1 µM (inactive) | 51.4 µM (inactive) | 24 µM (inactive) | 19.2 µM (inactive) | > 100 µM (inactive) | 23.7 µM (inactive) | 0.619 µM (active) | 21 µM (inactive) | 
[B].c1ccc([Si](OCCN2CC2)(c2ccccc2)c2ccccc2)cc1 |  | 14.8 µM (inactive) | 14.6 µM (inactive) | 14.9 µM (inactive) | 15.9 µM (inactive) | 14.5 µM (inactive) | 14.9 µM (inactive) | 14.3 µM (inactive) | 12.5 µM (inactive) | 12.9 µM (inactive) | 14.6 µM (inactive) | 13.5 µM (inactive) | 4.46 µM (inactive) | 14.3 µM (inactive) | 14 µM (inactive) | 14.4 µM (inactive) |  |  | 14.7 µM (inactive) | 27.1 µM (inactive)
CCCCCCCCCCCCCCCCCCNc1ccn(C2OC(COP(=O)(O)OCC3CCC(n4cnc5c(=O)[nH]cnc54)O3)C(O)C2O)c(=O)n1 (configuration not stated) | > 100 µM (inactive) | > 100 µM (inactive) | > 100 µM (inactive) | > 100 µM (inactive) | > 100 µM (inactive) | > 100 µM (inactive) | > 100 µM (inactive) | > 100 µM (inactive) | > 100 µM (inactive) | 51.5 µM (inactive) | 35.4 µM (inactive) | 14.2 µM (inactive) | 19.9 µM (inactive) | > 100 µM (inactive) | 83.8 µM (inactive) | > 100 µM (inactive) | > 100 µM (inactive) |  | > 100 µM (inactive) | 
